Measurements published in PubChem BioAssay (NCI).
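48-hour exposure; five concentrations; linearly interpolated endpoints. TGI: total growth inhibition.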

Key:
Experiment in all cases: NCI tumour cell line growth inhibition, 48 h
HS 578T breast = tested on: HS 578T breast
NCI-H460 lung = tested on: NCI-H460 lung
T-47D breast = tested on: T-47D breast
CCRF-CEM leukemia = tested on: CCRF-CEM leukemia
KM12 colon = tested on: KM12 colon
SF-295 CNS = tested on: SF-295 CNS
SK-MEL-2 melanoma = tested on: SK-MEL-2 melanoma
A549 NSCLC = tested on: A549 NSCLC
TK-10 renal = tested on: TK-10 renal
COLO 205 colon = tested on: COLO 205 colon
LOX IMVI melanoma = tested on: LOX IMVI melanoma

Structure (SMILES)	TGI (HS 578T breast)	TGI (NCI-H460 lung)	TGI (T-47D breast)	TGI (CCRF-CEM leukemia)	TGI (KM12 colon)	TGI (SF-295 CNS)	TGI (SK-MEL-2 melanoma)	TGI (A549 NSCLC)	TGI (TK-10 renal)	TGI (COLO 205 colon)	TGI (LOX IMVI melanoma)
Clc1nc2c(-c3cccs3)ncnc2n1Cc1ccccc1	87.8 µM	> 83.2 µM	> 91.5 µM	> 100 µM	37.5 µM	> 100 µM	> 100 µM	> 100 µM	61.5 µM	> 100 µM	> 100 µM
O=C(NC(Nc1ccc(F)c(Cl)c1)(C(F)(F)F)C(F)(F)F)C(C(F)(F)F)C(F)(F)F	64.7 µM	> 100 µM	> 100 µM	73.9 µM	> 100 µM	> 100 µM	44.5 µM	> 100 µM	> 100 µM	74.4 µM	29.9 µM
C[N+]1(C)CN(c2ccccc2)C2(CCN(CCCC(=O)c3cccs3)CC2)C1=O	> 100 µM	> 100 µM	> 100 µM	> 100 µM	> 100 µM	> 100 µM	> 100 µM	> 100 µM	> 100 µM	> 100 µM	> 100 µM
CC(C)(C)OC(=O)N1CCC23CCCC2C(=O)CC=C13 (stereo not given)	> 100 µM	> 100 µM	> 100 µM	> 100 µM	> 100 µM	> 100 µM	> 100 µM	> 100 µM	> 100 µM	> 100 µM	> 100 µM
COC(=O)CCCCC/C(=C\C(=O)C(Cl)(Cl)Cl)OC	97.1 µM	76.9 µM	> 100 µM	> 100 µM	95 µM	> 100 µM	50 µM	> 100 µM	86.9 µM	57.7 µM	44.9 µM
CC1(C)CCc2c(c(N=Nc3ccccc3)c3ccccc3c2O)O1	> 100 µM	53.3 µM	> 100 µM	> 100 µM	> 100 µM	57.3 µM	34.5 µM	> 100 µM	46.1 µM	> 100 µM	54 µM
Nc1cccc(OCc2nc(N)nc(N)c2-c2ccc(Cl)cc2)c1	> 100 µM	> 100 µM	> 100 µM	29.2 µM	> 100 µM	> 100 µM	> 100 µM	> 100 µM	> 100 µM	44.1 µM	> 100 µM
CCC(=O)NCCc1c[nH]c2ccc(OC)cc12	> 100 µM	> 100 µM	> 100 µM	> 100 µM	> 100 µM	> 100 µM	> 100 µM	> 100 µM	> 100 µM	> 100 µM	> 100 µM
C[C@@H]1CCC2[C@@H](C)C(=O)O[C@@H]3C4C[C@@H]1[C@@]23OO[C@@]4(C)O (stereo not given in full)	> 100 µM	> 100 µM	> 100 µM	> 100 µM	> 100 µM	> 100 µM	> 100 µM	> 100 µM	> 100 µM	> 100 µM	62.7 µM
O=C(O)c1ccccc1/C=N\NC1=NCCN1	> 100 µM	> 100 µM	> 100 µM	> 100 µM	> 100 µM	> 100 µM	> 100 µM	> 100 µM	> 100 µM	> 100 µM	> 100 µM
CC(C)[Si](OC1=CCCCCC12C(=O)N(C)c1ccccc12)(C(C)C)C(C)C (stereo not given)	61.6 µM	38.4 µM	21.3 µM	36.5 µM	38 µM	28.6 µM	37.6 µM	48.8 µM	80.9 µM	35.8 µM	35.7 µM
C=CCn1c(=O)c(C)cn(/C(=C/C(=O)OCC)C(=O)OCC)c1=O	76.1 µM	> 68.9 µM	30.7 µM	5.42 µM	36 µM	> 100 µM	53.6 µM	87.5 µM	28.8 µM	15.2 µM	21.3 µM
CC/C(Cl)=N\OC(=O)Nc1ccc(C#N)cc1	57.8 µM	36.2 µM	30.7 µM	4.1 µM	31.6 µM	33 µM	30 µM	35.7 µM	30.1 µM	3.3 µM	15.9 µM
O=C(/C=C/c1ccc(O)c(O)c1)OCCOC(=O)/C=C/c1ccc(O)c(O)c1	> 100 µM	> 100 µM	51.2 µM	> 100 µM	41.8 µM	44.1 µM	45.8 µM	> 100 µM	> 100 µM	42.3 µM	93.3 µM
O=C1OC(CN2CCN(c3ccccc3)CC2)CN1C(=S)Nc1ccccc1 (stereo not given)	> 100 µM	> 100 µM	> 100 µM	> 100 µM	> 100 µM	> 100 µM	> 100 µM	> 100 µM	> 100 µM	> 100 µM	> 100 µM
NC(=O)N(O)c1cccc(Br)c1	> 100 µM	> 100 µM	> 100 µM	> 100 µM	> 100 µM	> 100 µM	> 100 µM	> 100 µM	> 100 µM	> 100 µM	> 100 µM
Nc1ncc(Cc2nc3ccccc3s2)s1	96.4 µM	> 100 µM	> 100 µM	> 100 µM	> 100 µM	> 100 µM	> 100 µM	> 100 µM	> 100 µM	> 100 µM	> 100 µM
N#Cc1c(NC(=S)NCc2ccccc2)sc2c1CCN(N1CCc3c(sc(NC(=S)NCc4ccccc4)c3C#N)C1)C2	> 100 µM	> 100 µM	> 100 µM	> 100 µM	> 100 µM	> 100 µM	> 100 µM	> 100 µM	> 100 µM	> 100 µM	> 100 µM
Nc1c(C(=O)c2ccccc2)[nH]c(NCc2ccccc2)c1C(=S)Nc1ccccc1	> 100 µM	> 100 µM	> 100 µM	> 100 µM	> 100 µM	> 100 µM	> 100 µM	> 100 µM	> 100 µM	> 100 µM	> 100 µM
NC(CCCCNc1ccn(C2OC(CO)C(O)C2O)c(=O)n1)C(=O)O (stereo not given)	> 100 µM	> 100 µM	> 100 µM	> 100 µM	> 100 µM	> 100 µM	> 100 µM	> 100 µM	> 100 µM	> 100 µM	> 100 µM
